From patent US11911356B2, “Regulation of mutant TERT by BRAF V600E/map kinase pathway through FOS/GABP in human cancer” (THE JOHNS HOPKINS UNIVERSITY, priority 2017, dated 2024)

Experiments:
TERT expression = TERT expression by qRT-PCR in human cancer cell lines treated with inhibitors; type: cell-based; conditions: 0.2 uM AZD6244, 24 hours
Method: (§1) FIG. 2A-2G. BRAF V600E/MAPK pathway regulated TERT expression. (FIG. 2A) TERT expression was analyzed by qRT-PCR in cells treated with 0.5 uM PLX4032 or 0.2 uM AZD6244 for 24 hours (upper panel). The corresponding levels of phosphorylated ERK (p-ERK), total ERK (t-ERK), and beta-actin were detected by Western blotting (lower panel). The relative TERT mRNA expression levels were normalized to the DMSO control group. (FIG. 2B) Luciferase reporting assay of TERT promoter activities in K1 cells treated with DMSO or PLX4032 (0.5 uM). (FIG. 2C, 2D) Specific shRNA against BRAF were used to knock down BRAF in thyroid cancer cell lines BCPAP and K1 and melanoma cell line A375. Scramble shRNA was used as control. Cells were then subjected to Western blotting (FIG. 2C) and qRT-PCR (FIG. 2D). (FIG. 2E) Sequencing of the BRAF exon-15 in the parental and heterozygous BRAF-V600E knock-in SW48 cells. BRAF V600E was knocked in on one allele of BRAF by rAAV technology through homologous recombination and Cre recombinase of the Neo cassette. (FIG. 2F) Western blotting analyses of phosphorylation of ERK (p-ERK), total ERK (t-ERK), BRAF, and beta-actin in the parental and BRAF-V600E knock-in SW48 cells. (FIG. 2G) TERT promoter luciferase reporter assay in SW48 cells with/without BRAF V600E knock-in. **P<0.01, ***P<0.001, by 2-tailed Student's t test. P values are for the comparison of the indicated condition with DMSO (FIG. 2B), scramble (FIG. 2D), or BRAF-WT groups (FIG. 2G). All the values represent the average standard deviation (SD) of triplicate samples from a typical experiment. All the experiments were performed three times with similar results.
FIG. 3A-3C. MYC regulated TERT expression in a TERT promoter mutation-independent manner. (FIG. 3A) The four indicated cancer cell lines harboring BRAF V600E mutation were treated with 0.5 uM PLX4032 and/or 10 nM MYC-specific siRNA (siMYC) for 24 hours, which were then subjected to Western blotting (upper panel) and qRT-PCR (lower panel). The relative TERT mRNA expression was normalized to the control group. (FIG. 3B, 3C) Parental and BRAF V600E knock-in SW48 cells were treated with control siRNA (siControl) or MYC-specific siRNA (siMYC, 10 nM) for 48 h, followed by Western blotting (FIG. 3B) and luciferase reporter assays (FIG. 3C). *P<0.05, **P<0.01, ***P<0.001, by 2-tailed Student's t test. n.s., not significant. All the values represent the average standard deviation (SD) of triplicate samples from a typical experiment. Similar results were obtained in two additional independent experiments.
FIG. 9A-9B. Summarized effects of PLX4032 (FIG. 9A) and AZD6244 (FIG. 9B) on TERT mRNA expression. Each bar represents the average+SD of the cells with the same genotypes as follows: BRAF-mut and TERT-mut cell lines: BCPAP, K1, OCUT1, A375, and M14; BRAF-mut and TERT-wt cell lines: SK-MEL-1, SK-MEL-3, and RKO; BRAF-wt and TERT-mut cell lines: TPC1, KAT18, C643, CHL-1, SK-MEL-2, and Mewo; BRAF-wt and TERT-wt cell lines: FB1, WRO, and HTORI3. Compared with the corresponding control of DMSO, **P<0.01, ***P<0.001, by independent t-test.
The BRAF V600E-specific inhibitor PLX4032 (#S1267) and the MEK1 inhibitor AZD6244 (#S1008) were purchased from Selleck Chemicals (Houston, TX), dissolved in DMSO with a stock concentration of 10 mM and stored at −20° C. PLX4032 and AZD6244 were used to treat cells for 24 hours at 0.5 μM and 0.2 μM, respectively, where indicated in the manuscript. DMSO was used as the vehicle control.
Total RNA was extracted from cultured cells using the TRIzol reagent (#15596-018; Ambion, Life Technologies, Carlsbad, CA) and reverse-transcribed to cDNA using the SuperScript III First-Strand Synthesis System (#18080-051; Invitrogen, Life Technologies, Carlsbad, CA). Gene expression was analyzed in triplicate using FastStart Universal SYBR Green Master with ROX (#04913850001; Roche Applied Science, Indianapolis, IN) on the Applied Biosystems 7900HT Fast Real-Time PCR System. […]

ERK phosphorylation = experiment: Western blotting of phosphorylated ERK in inhibitor-treated cells; type: cell-based, human; conditions: cells harboring wild-type BRAF; 0.2 uM AZD6244, 24 hours
Method: as §1, with “results. […]” for “results.”
Cells were lysed in the RIPA buffer (#sc-24948; Santa Cruz Biotechnology, Santa Cruz, CA) with protease inhibitor cocktail (#P8340; Sigma-Aldrich) and phosphatase inhibitor cocktail (#P0044; Sigma-Aldrich) and Western blotting analysis was performed as we previously described^54. […] Signals were detected by SuperSignal™ West Pico PLUS Chemiluminescent Substrate (#34579; Thermo Fisher Scientific). […]

Compound: Cn1cnc2c(F)c(Nc3ccc(Br)cc3Cl)c(C(=O)NOCCO)cc21 [AZD6244]
- TERT expression (TERT expression; cells harboring BRAF V600E mutation): similarly inhibited TERT expression
- TERT expression (TERT expression; cells harboring wild-type BRAF, TERT promoter mutant versus wild-type): inhibited TERT expression more in those harboring TERT promoter mutations
- ERK phosphorylation (ERK phosphorylation): modest inhibitory effect
